Results on one molecule are retold here after patent publication EP2444396A1, “PHOTOPROTECTIVE COMPOSITION” (Apoteknos Para La Piel, S.L., priority 2009, dated 2010).

The test system of the test is Erythema induced by UVB radiation in mouse. The test is described as follows: Photoprotection: erythema induced by UVB radiation in mouse skin. Particulars: individual animals No. 1-10; 0.5% gel topical, about 2.5 kJ/m^2 UVB, 24 hours after exposure. Further details: key to Erythema induced by UVB radiation in mouse: presence (+); absence (-). In kind it is in vivo. From the text: The effect of p-nitrolophine and m-nitrolophine on erythema due to exposing the mouse skin to an irradiation source at maximum in the UVB region has been studied in these assays. The results obtained have been compared with the effect of 4-methylbenzylidene camphor (P5000) a substance considered as a UVB solar filter and with the effect of butyl methoxydibenzoylmethane (P1789) an UVA type filter, both products being commonly used in antisolar cosmetics.
35 male mice weighing more than 20 grams have been used. After receiving them, the animals were acclimated for 7 days at the place where the assays were preformed, they were being placed in a cage with controlled temperature (22°C), with relative humidity between 50% and 75%, replacing fresh filtered air approximately 10 times per hour and with 12 h light/dark cycles (7.00 - 19.00 light and from 19.00 to 7.00 dark). For this period and during the experimental period, the animals were fed ad libitum with standard diet for rodents and running water as drink.
The animals were randomly distributed into 4 experimental groups according to Table 7. The products to be tested were directly used, applying them in the form of a gel on an area of the skin such that each animal form its own control.
The test was performed following the method described by Winder et al. ["A study of Pharmacological influences on ultraviolet erythema in guinea pigs". Arch. Int Pharmacodyn, 116:261-292; 1958] and by other authors [Wendy et al. "The local antinociceptive and topical antiinflamatory effects of propyl gallate in rodents". Br. J. Pharmacol, 58:573 -581; 1976; Katiyar et al. "Protective Effects of Silymarin Against Photocarcinogenesis in a Mouse Skin Model". J Natl Cancer Inst 89:556-65; 1997] with slight modifications. The day […] the assay, as much hair as possible were removed from the animals by applying a layer of commercial hair-removing cream to remove all the trace of hair and to leave the skin of the back completely bare. The rest of the hair-removing cream were removed by means of washing and rinsing with running water and the animals were the returned to their corresponding cages where they remained until the following day.
On the day of the assay, the substances to be assayed were blindly applied on the back of the previously labelled animals following a random pattern (randomized). After applying the corresponding treatments, the animals were placed and pinned to the presentation platform of the equipment. The animals were then placed 8 cm from an ultraviolet light source of 4*40w with 313 nm of fundamental emission and a range comprised approximately between 290 and 350 nm and with an anti-UVC filter. The emission spectrum of said light source is depicted in Figure 1.
The exposure was maintained until all the animals have received an approximate total dose of 2.5 kJ/m^2. The dose of irradiation applied was determined by means of a ultraviolet light detector, the response curve of which is shown in Figure 2.
Twenty four hours after ending the exposure, the back of the animals was photographed and they were returned to their cages. The evaluation of erythema was performed by means of a positive/negative criterion, the percentage of protected animals being obtained. The statistic significance of the difference was evaluated by means of the non-parametric Fisher Test.

Take `O=[N+]([O-])c1ccc(-c2nc(-c3ccccc3)c(-c3ccccc3)[nH]2)cc1` [p-nitrolophine, 2-(4-nitrophenyl)-4,5-diphenyl-1H-imidazole]: the “Erythema induced by UVB radiation in mouse” value is recorded as “-”.
